These results are taken from patent US20240174680A1, “CDK2 INHIBITORS AND METHODS OF USING THE SAME” (Cedilla Therapeutics, Inc., priority 2021, published 2024).

The subject of one assay is Kuramochi cells. Description: BrdU cell proliferation assay (colorimetric ELISA). The settings on record: read-out: BrdU - KURAMOCHI.1: IC50. The format is cell-based. As to the method:
A BrdU assay was used as a measure of proliferation based on the DNA replication process of proliferating cells. BrdU, a pyrimidine analog, is added to the cell culture and incorporated into the DNA of proliferating cells. The presence of the BrdU analog was then measured through a colorimetric ELISA. After fixation and permeabilization of cells, peroxidase-conjugated antibody recognizing BrdU is added and allowed to incubate, followed by thorough washing to remove unbound antibody. In order to quantify the amount of bound antibody, peroxidase substrate is added and produces a color that can be measured at 450 nm.
On day −1, Kuramochi cells (Sekisui XenoTech JCRB0098) were seeded at 2,000 cells/well in columns 2-12 of a 96 well plate (Corning, CLS3596) in 150 μL media and allowed to adhere overnight at 37 degree with 5% CO2.
On day 0, the source plate was prepared by adding 10 mM compounds and performing 3-fold serial dilutions for a 10-point dose response of each compound. Using a multichannel pipette, 2 μL of the contents of the source plate were stamped into an intermediate plate with 500 μL of RPMI 1640 Media, GlutaMAX Supplement (Life Technologies, 61870127) in each well of a Nunc 96 DeepWell™ plate, non-treated 96 DeepWell plate, 2 mL/well, sterile, natural, 60/cs (Sigma Z717274) and mixed thoroughly. 50 μL from each well of this intermediate plate were added to 4 wells of a 96-well plate with previously seeded Kuramochi cells.
On day 4, the plates were developed using the BrdU ELISA Cell Proliferation Assay according to manufacturer's instructions (Roche, 11647229001). Briefly, BrdU was diluted 1:100 in Gibco®, OptiMEM® and 20 μL/well was added, shaken for 10 minutes at 350 rpm, and then returned to the incubator for 1 hour. Following incubation, the medium was discarded, and the cells were fixed by adding 200 μL of Fix/Denature solution. The anti-BrdU peroxidase antibody was diluted 1:1000 in OptiMEM, added at 100 μL/well, and incubated while shaking (350 rpm) for one hour. Three washes with PBS were performed to remove any unbound antibody, followed by the addition of 100 μL of substrate solution to each well. 25 μL/well of 1M sulfuric acid solution was then added to halt the reaction, and plates were read out using an Envision spectrophotometer (Perkin Elmer) set to read 450 nm absorbance. Background absorbance values from empty wells were subtracted from all samples and then normalized to DMSO treated wells.

For a further assay, the target named is CDK2/Cyclin E1 (Homo sapiens, UniProt P24941). Description: CDK2/Cyclin E1 Caliper LabChip EZ Reader mobility shift assay. It counts as biochemical. Details: purchased Eurofins 14-475. Conditions: read-out: Caliper Assay (CDK2/CCNE1): IC50. The method, boiled down: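 Substrate-to-product conversion of fluorescent peptide (1.5 μM final) read by capillary electrophoresis after 100 min reaction, EDTA-quenched. Enzyme (2.5 nM final) and ATP (100 μM final) were preincubated 30 min with inhibitor dilutions first. % activity vs concentration fitted four-parameter for IC50.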

The subject of assay [1] is Kuramochi cells labeled with mApple-H2B. The experiment in a line: IncuCyte cell proliferation assay. The format is cell-based. The settings on record: 72 hours. As to the method:
IncuCyte® assay was used to measure the effect of disclosed compounds on cell proliferation. Fluorescent microscopy images of cells were taken immediately after compound treatment and 72 hours later. Image analysis software was used to obtain cell counts as a function of compound concentration. Kuramochi cells labeled with mApple-H2B were seeded on 384-well assay-ready plates. Plates were placed in an IncuCyte® (Sartorius) and scanned at 0 and 72 hours. IncuCyte® software was used to count the number of fluorescent nuclei in each well. The fold change in cell count from 0 to 72 hours in wells treated with increasing compounds concentrations (10 pts, 1/2 log dilution, 20 μM top concentration) was normalized to DMSO control wells. The normalized cell counts were fit with dose response curves and a […] was calculated.
Compounds with an ICp greater than 0.5 μM and less than or equal to 5.0 μM are designated as “B”.

Each structure is given as a SMILES string. Bounds are passed on as bounds.

For `CNC(=O)[C@@H](NC(=O)[C@@H]1CN(C(=O)c2cncs2)CC12CN(CC1CCOCC1)C2)[C@@H](C)OCC12CCC(CC1)OC2` [I-346], the IC50 is over 10 µM in the assay on Kuramochi cells, over 10 µM at CDK2/Cyclin E1 and over 20 µM in assay [1].

As to `CNC(=O)[C@@H](NC(=O)[C@@H]1CN(C(=O)c2cncs2)CC12CN(C(=O)[C@H]1CC1(C)C)C2)c1nnc(C2CCCCC2)o1` [I-429], the IC50 was over 10 µM with Kuramochi cells and over 20 µM in assay [1].
